Consider 5 molecules from US12042507B2, “Compositions and methods of modulating HIF-2A to improve muscle generation and repair” (University of Georgia Research Foundation, Inc., priority 2017, dated 2024).

Data set [1] relates to clear cell renal cell carcinoma (ccRCC). Conditions: patients with ccRCC; cited from earlier work.
For the next data set, the system named is HIF-2α. The conditions noted are these: cited from earlier work.
The test system of another data set is HIF-1a. The conditions noted are these: cited from earlier work.
The test system of data set [2] is CTX-injured tibialis anterior (TA) muscles of hypoxia-exposed mice. Kind of data set: Muscle regeneration after CTX injury under eubaric hypoxia. The class given is in vivo, wildtype B6 mice. Conditions: hypoxia 17% pO2, 10 dpi. The method, then: To gain insights on hypoxic effect on muscle regeneration, wildtype B6 mice (12-week old) were treated with eubaric hypoxia (17% pO2, 1 atm) in hypoxia chamber for 4 weeks and injected with CTX (0.5 nmol, 100 μL) into tibialis anterior (TA) muscles at day 18. Mice under normoxia (21% pO2, 1 atm) were injured with CTX as a control.
To assess if HIF-2α inhibition benefits regeneration under experimental hypoxia, HIF-2α inhibitor HIF-C2 (5 mg in 0.1% DMSO) or vehicle (0.1% DMSO) were intramuscularly administered to the injured muscles at days 2, 3 and 4 post-injury (2-4 dpi).

In a further data set the test system is CTX-injured TA muscles. Kind of data set: Muscle regeneration after CTX-induced injury, intramuscular HIF-c2. The conditions noted are these: for total number of Pax7+ SCs per TA muscle section: vs DMSO. The procedure:
To induce Cre activity in mice with the Pax7^cre/ERT2 allele, tamoxifen (20 mg/ml in corn oil) was intraperitoneally administrated for 3 consecutive days (100 mg/Kg/day). To assess myofiber damage, 1% Evan's blue (4 ml/Kg in saline) was intraperitoneally administrated 1 day before the euthanasia. To trace proliferative cells, EdU (50 mg/Kg in DMSO) was intraperitoneally administrated 1 day before the euthanasia. For CTX-induced muscle injury, CTX (0.5 nmol in saline) was injected into TA muscle.
For staining muscle sections, muscle sections were fixed with 2% paraformaldehyde (PFA)/PBS for 10 mins, quenched with 50 mM glycine for 10 mins, permeabilized with 0.5% Triton X-100 for 10 mins. To reduce background fluorescence due to endogenous mouse IgG, Mouse on Mouse (M.O.M.) Blocking Reagent (Vector Lab) was used according to the manufactures' instruction. Muscle sections were blocked in 5% BSA/5% normal goat serum in PBS for 1 hr and incubated with primary antibodies: anti-Pax7 (1:5; DSHB), anti-HIF-2α (1:250; Novus Bio.), anti-HIF-1α (1:250; Novus Bio.), anti-Ki67 (1:1,000; Abcam), anti-Laminin B2 (1:1,000; Milipore), anti-embryonic MyHC (1:50, DSHB), anti-MyHC type I, IIA, or IIB (1:50, DSHB) overnight at 4° C. For EdU staining, Click-iT EdU Fluorescence Kit (Life technologies) was used according to the manufactures' instruction before the application of primary antibodies. Muscle sections were washed in PBS with 0.1% Tween-20, incubated with Alexa Fluor dye-labeled secondary antibodies at room temperature for 1 hr and washed. Sections were mounted with DAPI-containing mounting medium (Life technologies).
Peak isometric torque of the ankle dorsiflexors (tibialis anterior, extensor digitorum longus and extensor hallicus longus muscles) was assessed in vivo as previously described (47). Briefly, mice were anaesthetized with 1.75% isoflurane mixed with oxygen. The left hindlimb was depilated and aseptically prepared before the foot was placed into a foot plate attached to a servomoter (Model 300C-LR; Aurora Scientific, Aurora, Ontario, Canada). Two Pt-Ir electrode needles (Model E2-12; Grass Technologies, West Warwick, RI, USA) were inserted percutaneously on either side of the peroneal nerve. The ankle joint was secured at a 90° angle and body temperature was maintained at 37° C. throughout functional testing. Peak isometric torque was achieved by varying the current delivered to the peroneal nerve at a frequency of 200 Hz and a 0.1-ms square wave pulse. Torques (Nomm) were normalized by the body mass (kg^−1) to account for differences in body size among mice. Following peak isometric torque measurements, the dorsiflexors were subject to 100 electronically stimulated eccentric contractions in order to induce injury. During each contraction the foot was passively moved from the 0° position (perpendicular to tibia) to 20° of dorsiflexion. The dorsiflexors were stimulated at 200 Hz for a 100-ms isometric contraction followed by an additional 50 ms of stimulation while moving from 20° dorsiflexion to 20° plantarflexion at an angular velocity of 800°/s. Eccentric contractions were repeated every 10 seconds and the entire protocol lasted about […].
Muscle sections were stained with Sirius red solution (0.1% in picric acid) for 15 mins, washed with 1% acetic acid for 3 times. Sections were mounted with Cytoseal™ 60 mounting medium (Thermo Fisher Scientific), followed with imaging.
To investigate effects of HIF-2α inhibition on muscle regeneration, HIF-c2 or the carrier solution (1% DMSO) was administered into CTX-injured TA muscles of C57BL/6 mice (daily injections between 1-5 dpi; FIG. 5A). EdU was administrated in the same mice to trace cell proliferation.

Data set [3] has as its system tibialis anterior (TA) muscles of mTR/Mdx mice. Kind of data set: Intramuscular HIF-C2 in dystrophic TA muscle of mTR/Mdx mice. The class given is in vivo. The procedure: To reveal the potential therapeutic effects of HIF-2α inhibition on muscular dystrophy, the HIF-2α inhibitor HIF-C2 was intramuscularly injected (5 mg/injection; total 3 doses on day 1, day 4, and day 7) into tibialis anterior (TA) muscles of mTR/Mdx mice (2nd generation; males: n=3 and females: n=3; 16-week old). The contralateral TA muscles received vehicle (0.1% DMSO) injections followed the same injection regime. HIF-C2 and vehicle-treated TA muscles were collected for histological examinations at 28 days after the first treatment.
To investigate whether HIF-C2 improves satellite cell function in mTR/Mdx mice, Pax7 (the definitive marker of satellite cells) and Ki67 (a proliferation marker) immunostaining were carried out on muscle cross-sections and the number of Pax7+pos cells (total number of satellite cells) and Pax7+pos/Ki67+pos cells (proliferative satellite cells) per muscle section were enumerated.
Muscle fibrosis is one of the characteristic pathological changes of Duchenne muscular dystrophy (Klingler et al., Acta Myol 31, 184-195 (2012)). […] Thus, Masson's trichrome staining was performed to reveal the amount of collagen in endomysium.

The test system of a further data set is HIF-2. The conditions noted are these: living cells; cited from earlier work.
Data set [4] has as its target full-length HIF-2 transcription factor (Homo sapiens, UniProt Q99814). Conditions: cited from earlier work.
The target in a further data set is HIF-2α PAS-B (Homo sapiens, UniProt Q99814). The conditions noted are these: binds within the internal cavity of HIF-2α PAS-B; cited from earlier work.
Chain of HIF-2α PAS-B (Q99814 240-350 limits assumed): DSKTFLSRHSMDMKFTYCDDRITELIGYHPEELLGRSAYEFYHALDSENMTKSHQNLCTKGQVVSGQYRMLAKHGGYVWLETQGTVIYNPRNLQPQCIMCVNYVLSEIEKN
The target of a further data set is HIF-1 (Homo sapiens, UniProt Q16665). The conditions noted are these: selectivity for the HIF-2 isoform; cited from earlier work.
Chain of HIF-1 (Q16665 whole entry, canonical isoform): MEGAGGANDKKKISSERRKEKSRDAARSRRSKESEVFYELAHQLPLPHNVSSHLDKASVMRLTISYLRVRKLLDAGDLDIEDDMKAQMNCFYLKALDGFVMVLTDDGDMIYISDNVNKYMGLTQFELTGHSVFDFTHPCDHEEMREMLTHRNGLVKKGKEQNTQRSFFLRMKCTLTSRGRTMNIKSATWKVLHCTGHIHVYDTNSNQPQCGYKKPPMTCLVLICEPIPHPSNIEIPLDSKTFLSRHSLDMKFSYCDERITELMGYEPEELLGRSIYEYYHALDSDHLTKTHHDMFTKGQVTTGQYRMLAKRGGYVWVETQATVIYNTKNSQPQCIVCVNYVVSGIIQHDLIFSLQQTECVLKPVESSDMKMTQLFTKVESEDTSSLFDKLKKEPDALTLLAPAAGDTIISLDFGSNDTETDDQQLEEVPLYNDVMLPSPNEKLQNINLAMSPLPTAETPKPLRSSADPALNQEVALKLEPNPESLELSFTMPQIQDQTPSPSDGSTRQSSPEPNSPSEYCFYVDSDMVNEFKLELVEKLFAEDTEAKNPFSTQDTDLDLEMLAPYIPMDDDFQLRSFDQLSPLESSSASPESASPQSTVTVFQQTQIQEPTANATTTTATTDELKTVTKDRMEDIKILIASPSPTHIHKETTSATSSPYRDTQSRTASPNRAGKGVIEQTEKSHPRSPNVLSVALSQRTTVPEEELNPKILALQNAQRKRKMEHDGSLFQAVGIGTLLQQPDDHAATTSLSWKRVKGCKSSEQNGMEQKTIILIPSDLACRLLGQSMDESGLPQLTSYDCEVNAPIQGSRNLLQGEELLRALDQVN
The test system of the next data set is C2Cl2 myoblasts. Kind of data set: RT-qPCR of HIF-2α and Spry1 mRNA in C2Cl2 myoblasts. The class given is cell-based. The method, then: C2Cl2 myoblasts were transfected with pCMEGIP-HIF2αTM or control empty pCMEGIP plasmids using TransIT-X2 (Mirus Bio.). To differentiate C2Cl2 myoblasts, cells were cultured to reach 80% confluency and further cultured in DMEM (4.5 g/L glucose) medium supplemented with 2% horse serum for 5 days.
For measure relative expression levels, total RNA was isolated from C2Cl2 myoblasts using TRIzol or from FACS sorted satellite cells using PicoPure RNA Isolation Kit (Thermo Fisher Scientific). 1 μg total RNA from C2Cl2 myoblasts (or 0.2 μg total RNA from satellite cells) was used in 20 μl reverse transcription reactions (Maxima; Life technologies) and diluted into 100 μl. 2 μl diluted cDNA was used in 8 μl quantitative PCR reactions (SsoAdvanced™ Universal SYBR Green mix; Bio-Rad) on a BioRad CFX384™ Real-Time PCR Detection System. Cq-values were determined and expression values were calculated by BioRad CFX Manager™ Software. Relative expression values were normalized to inner reference genes Rps18 and Tbp of each biological sample. The following primers were used for quantifying expression levels: […]
In general terms: Real-time PCR tracks product formation cycle by cycle.

The test system of the next data set is mouse xenograft models. Conditions: cited from earlier work.
In data set [5] the test system is HIF-2α target genes in tumor cells. Conditions: cited from earlier work.
Where [6] appears, read: shRNA expression in C2Cl2 myoblasts.

Entries after “also recorded” stand apart in the source; their conditions may differ.

Chain of full-length HIF-2 transcription factor (Q99814 whole entry): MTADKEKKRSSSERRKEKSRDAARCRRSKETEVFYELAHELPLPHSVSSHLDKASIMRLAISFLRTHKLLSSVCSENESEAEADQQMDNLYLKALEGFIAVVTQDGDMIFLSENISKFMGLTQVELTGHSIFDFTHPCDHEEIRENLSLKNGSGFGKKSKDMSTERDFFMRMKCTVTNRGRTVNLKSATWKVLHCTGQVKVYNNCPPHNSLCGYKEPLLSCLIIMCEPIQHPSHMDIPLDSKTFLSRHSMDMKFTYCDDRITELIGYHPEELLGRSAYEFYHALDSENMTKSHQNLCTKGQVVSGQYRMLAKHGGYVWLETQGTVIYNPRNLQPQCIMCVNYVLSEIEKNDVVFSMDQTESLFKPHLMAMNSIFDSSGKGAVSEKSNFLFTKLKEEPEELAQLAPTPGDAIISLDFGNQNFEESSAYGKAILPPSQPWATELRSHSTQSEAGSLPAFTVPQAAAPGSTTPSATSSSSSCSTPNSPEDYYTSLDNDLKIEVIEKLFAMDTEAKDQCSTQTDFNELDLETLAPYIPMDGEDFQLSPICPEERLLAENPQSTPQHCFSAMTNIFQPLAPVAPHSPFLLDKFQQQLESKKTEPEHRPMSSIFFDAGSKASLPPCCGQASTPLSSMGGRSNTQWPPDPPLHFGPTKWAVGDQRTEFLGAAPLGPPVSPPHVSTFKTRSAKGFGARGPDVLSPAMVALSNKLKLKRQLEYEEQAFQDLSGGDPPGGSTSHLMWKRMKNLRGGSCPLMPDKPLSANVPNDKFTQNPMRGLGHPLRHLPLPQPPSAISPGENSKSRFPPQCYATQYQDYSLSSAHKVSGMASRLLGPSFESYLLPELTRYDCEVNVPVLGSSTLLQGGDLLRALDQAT

Regarding `CS(=O)(=O)c1ccc(Oc2cc(F)cc(C#N)c2)c2c1[C@H](O)C(F)(F)C2` [PT2385], the clinical activity entry in data set [1] is on record as “demonstrated clinical activity”.

Turning to `O=C(CCCCCCC(=O)Nc1ccccc1)NO` [Vorinostat], in the data set with HIF-2α, the “reversal of epigenetic silencing of HIF-2α” value is listed as “can reverse the epigenetic silencing of HIF-2α”. Further, the “reversal of epigenetic silencing of HIF-1a” value with HIF-1a is given as “not HIF-1a”.

What is called Kd is the free concentration of one partner at which half of the binding sites on the other are occupied at equilibrium, for simple one-to-one binding. For the molecule `O=[N+]([O-])c1c(Nc2cc(F)cc(Cl)c2)ccc2nonc12` [HIF-C2, N-(3-chloro-5-fluorophenyl)-4-nitrobenzo[c][1,2,5]oxadiazol-5-amine], in data set [2], the “muscle regeneration under hypoxia” value was “improved” and the “percentage of Ki67+ proliferating satellite cells” value is recorded as “improved satellite cell proliferation under hypoxia to a level better than the normoxic condition”. The “MuSC (Pax7+) number” value in data set [2] (5 mg i.m. at 2-4 dpi, vs vehicle) is on record as “increased”. Besides, the “Pax7+/EdU+ activated SCs per TA muscle section” value in the data set on CTX-injured TA muscles (3 dpi, vs 1% DMSO carrier) is given as “increased”. For the same molecule, in the data set on CTX-injured TA muscles (7 dpi), the “expression of HIF-2α in treated muscle” value is reported as “reduced”, the “expression of MyoD in treated muscle” value is given as “reduced”, the “expression of eMyHC in treated muscle” value is on record as “reduced” and the myofiber regeneration result is recorded as “improved”. Moreover, the “total number of Pax7+ SCs per TA muscle section” value with CTX-injured TA muscles (7 dpi) is listed as “increased”. The “recovery of the maximal torque measured before injury” value in the data set with CTX-injured TA muscles (7 dpi, n=6, peroneal nerve stimulation) is around 53%. Further, the “total number of Pax7+ SCs per TA muscle section” value in the data set with CTX-injured TA muscles (10 dpi) is recorded as “increased”. Further, in the data set with CTX-injured TA muscles (30 dpi), the “fibrosis (Sirius red staining for collagen)” value is on record as “no overt sign of fibrosis”, the “myofiber cross sectional areas” value is recorded as “increased” and the “numbers of Pax7+ SCs vs control muscles” value was “comparable numbers”. In addition, the “recovery of the strength (maximal torque)” value with CTX-injured TA muscles (30 dpi, n=3) is listed as around 90%. The “HIF-2α expression in muscle (including SCs)” value in the data set with CTX-injured TA muscles (intramuscular, 5 mg/injection/day, 3 consecutive days) is given as “reduced HIF-2α expression”. In addition, the “total number of satellite cells (Pax7+pos) per muscle section” value in data set [3] (female mTR/Mdx mice) is listed as “elevated”. Besides, the “number of proliferative satellite cells (Pax7+pos/Ki67+pos)” value in data set [3] (female mTR/Mdx mice, 28 days post-treatment, vs control) was “comparable”. Also, in data set [3] (male mTR/Mdx mice), the “number of centralized nuclei in a myofiber” value is recorded as “increased”, the “number of proliferative satellite cells (Pax7+pos/Ki67+pos)” value is “significantly increased” and the “total number of satellite cells (Pax7+pos) per muscle section” value was “significantly increased”. For the same molecule, in data set [3] (males and females, 28 days after first treatment), the “myofiber cross-sectional area (CSA), ImageJ analysis” value is given as “increase of myofiber caliber”. The “myofiber size (H&E staining)” value in [3] (males and females, 28 days after first treatment, 5 mg/injection x3, vs vehicle) was “larger myofibers”. The “amount of collagen in endomysial space (Masson's trichrome staining)” value in data set [3] (vs vehicle-treated control muscles) is “remarkably reduced”. Moreover, the “HIF-2 DNA binding and transcription of its target genes” value in the data set on HIF-2 was “disrupting HIF-2 DNA binding and inhibiting the transcription of its target genes”. For the same molecule, the “heterodimerization of the full-length HIF-2 transcription factor” value in [4] is “disrupts heterodimerization”. Besides, on HIF-2α PAS-B, the Kd is 81 nM. For the same molecule, on HIF-1, the “activity to antagonize HIF-1” value was “no activity to antagonize HIF-1”. In the data set on C2Cl2 myoblasts (HIF-c2 100 μM, C2Cl2 myoblasts), the “HIF-2α mRNA level” value is recorded as “unchanged” and the “Spry1 mRNA level” value is recorded as “decreased; also recorded: reduced”.

Consider `CS(=O)(=O)c1ccc(Oc2cc(F)cc(C#N)c2)c2c1[C@H](O)[C@H](F)[C@@H]2F` [PT2977], for which the tumor regression entry in the data set on mouse xenograft models is recorded as “induced regression”. The “expression of HIF-2α target genes” value in data set [5] is listed as “inhibited”.

B1: HIF-2α shRNA #1: For HIF-2α knockdown, HIF-2α shRNA oligos ... cloned into pMSCV-P2GM retrovirus plasmids; HIF-2α shRNA #1 oligo (SEQ ID NO: 18) (nucleic acid)
DNA: TGCTGTTGACAGTGAGCGAACACTTGATGTGGAAACGTATTAGTGAAGCCACAGATGTAATACGTTTCCACATCAAGTGTGTGCCTACTGCCTCGGA
In the case of B1, in the data set with C2Cl2 myoblasts (setting [6]), the “HIF-2α mRNA level” value is listed as “reduced” and the “Spry1 mRNA level” value is given as “reduced”.
